{"source": "patent US11008332B2", "about": "“Pharmaceutical composition for preventing or treating aging-related diseases containing decursin derivative as active ingredient” (PRG S&TECH INC., priority 2017, dated 2021)", "key": {"[1]": {"tested_on": "Lmna^G609G/G609G, progeria model mouse", "experiment": "Life span, body weight and morphology of Lmna^G609G/G609G progeria model mice", "assay_type": "in vivo", "method": "The experiments were performed in the Association for Assessment and Accreditation of Laboratory Animal Care certified facility, in compliance with animal policies approved by Pusan National University.\nLmna^G609G/609G mice were generated as timed mating of heterozygous Lmna^+/G609G provided by Carlos López-Otin (Universidad de Oviedo, Asturias, Oviedo, Spain).\nSLC-D011, mixed with DMOS and PBS, were intraperitoneally injected in mice (20 mg/kg twice per week from 5-week-old). In addition, SLC-D011 dissolved at a concentration of 10 mg/ml in monoolein-based solution was orally administrated to mice in 5 times a week and control mice were treated in the same conditions by administering monoolein-based solution alone.\nLmna^G609G/609G mice were treated with clear chemical solution throughout life span, starting from 5 weeks of age. Lmna^+/G609G were treated via intraperitoneal, starting from 32 weeks of age."}, "[2]": {"experiment": "Chemical pharmacokinetic (PK) analysis, blood/plasma concentration by LC-MS/MS", "assay_type": "in vivo", "conditions": "FIG. 2A", "method": "For PK analysis, 5 mg/kg of JH4 in 10% DMSO, 5% Tween […] solution was intravenously injected and 10 mg/kg of JH4 in 10% NMP and 90% PEG400 solution was per orally delivered. At the setting time-points, blood concentration of JH4 was determined by LC-MS/MS analysis and the PK analysis for other chemicals was also tested by the similar protocol."}, "[3]": {"tested_on": "Lmna^wt/G609G mice", "experiment": "Life span and morphology of Lmna^wt/G609G mice", "assay_type": "in vivo, mouse"}, "[4]": {"conditions": "Lmna^G609G/G609G mice, 20 mg/kg i.p injection twice per week from 5 week age, FIG. 2C"}, "[5]": {"conditions": "Lmna^G609G/G609G mice, oral gavage 50 mg/kg daily in monoolein solution from 5 weeks old, FIG. 3C"}, "[6]": {"conditions": "Lmna^wt/G609G mice, injection started from 43 weeks old, FIG. 2E"}}, "data": [{"smiles": "CC1(C)Oc2cc3oc(=O)ccc3cc2C[C@@H]1OC/C=C/c1ccccc1", "note": "[SLC-D011, (7S)-(+)-8,8-dimethyl-7-(3-phenyl-allyloxy)-7,8-dihydro-6H-pyrano[3,2-g]chromen-2-one]", "values": [{"measurement": "life-span extended to", "setting": "[1]; Lamn^G609G/G609G mice, i.p injection", "value": 20, "unit": "weeks"}, {"measurement": "body size and gross morphology", "setting": "[1]; Lamn^G609G/G609G mice, i.p injection, FIG. 2D", "value": "body size increase and gross morphology were also improved"}, {"measurement": "lifespan extension", "setting": "[1]; Lamn^G609G/G609G mice, oral administration in olein-based solution", "value": 4.5, "unit": "weeks"}, {"measurement": "average (ave) life span", "setting": "[1]; [4]", "value": 19.5, "unit": "weeks"}, {"measurement": "maximum (max) life span", "setting": "[1]; [4]", "value": 21, "unit": "weeks"}, {"measurement": "body weight increase compared to vehicle group", "setting": "[1]; Lmna^G609G/G609G mice, oral administration, FIG. 3D", "value": "about 35%"}, {"measurement": "body size at 8 weeks old", "setting": "[1]; Lmna^G609G/G609G mice, oral administration, FIG. 3E", "value": "apparently larger than that of vehicle-mouse"}, {"measurement": "average life span", "setting": "[1]; [5]", "value": 19.3, "unit": "weeks"}, {"measurement": "maximum life span", "setting": "[1]; [5]", "value": 19.5, "unit": "weeks"}, {"measurement": "bioavailability", "setting": "[2]; blood, oral, PK analysis, read-out: bioavailability (B.A.)", "value": 66, "unit": "%"}, {"measurement": "PK profile", "setting": "[2]; in vivo PK analysis", "value": "proper PK profile"}, {"measurement": "lifespan extended from 45 to", "setting": "[3]; Lamn^wt/G609G model", "value": 64, "unit": "weeks"}, {"measurement": "average life span", "setting": "[3]; [6]", "value": 65, "unit": "weeks"}, {"measurement": "maximum (max) life span", "setting": "[3]; [6]", "value": 66, "unit": "weeks"}, {"measurement": "morphology such as hair condition and body size", "setting": "[3]; Lmna^wt/G609G mouse, FIG. 2F", "value": "greatly improved"}]}]}
